Test results reported in ChEMBL document CHEMBL5260802, “Discovery of Novel Allosteric HCV NS5B Inhibitors. 2. Lactam-Containing Thiophene Carboxylates” (ACS Med Chem Lett, 2017).

Legend:
[1] = Half life in Cynomolgus monkey at 1 mg/kg,iv and measured after 72 hrs by LC/MS/MS analysis; assay type: ADME, organism-based, Macaca fascicularis; conditions: in vivo
[2] = Unbound clearance in Cynomolgus monkey at 1 mg/kg,iv and measured after 72 hrs by LC/MS/MS analysis; assay type: ADME, organism-based, Macaca fascicularis; conditions: in vivo
[3] = Unbound AUC (0 to infinity) in Cynomolgus monkey at 1 mg/kg,iv and measured after 72 hrs by LC/MS/MS analysis; assay type: ADME, organism-based, Macaca fascicularis; conditions: in vivo
[4] = Half life in Sinclair Lab dog at 1 mg/kg,iv and measured after 72 hrs by LC/MS/MS analysis; assay type: ADME, organism-based, Canis lupus familiaris; conditions: in vivo
[5] = Oral bioavailability in Sprague-Dawley rat at 3 mg/kg and measured after 72 hrs by LC/MS/MS analysis; assay type: ADME, organism-based; conditions: in vivo
Cytochrome P450 2D6 = Cytochrome P450 2D6 (Homo sapiens, UniProt P10635); assay: Inhibition of CYP2D6 in human liver microsomes incubated for 10 mins in presence of NADPH by LC/MS/MS analysis; assay type: ADME, Microsome
Chain of Cytochrome P450 2D6 (P10635 whole entry): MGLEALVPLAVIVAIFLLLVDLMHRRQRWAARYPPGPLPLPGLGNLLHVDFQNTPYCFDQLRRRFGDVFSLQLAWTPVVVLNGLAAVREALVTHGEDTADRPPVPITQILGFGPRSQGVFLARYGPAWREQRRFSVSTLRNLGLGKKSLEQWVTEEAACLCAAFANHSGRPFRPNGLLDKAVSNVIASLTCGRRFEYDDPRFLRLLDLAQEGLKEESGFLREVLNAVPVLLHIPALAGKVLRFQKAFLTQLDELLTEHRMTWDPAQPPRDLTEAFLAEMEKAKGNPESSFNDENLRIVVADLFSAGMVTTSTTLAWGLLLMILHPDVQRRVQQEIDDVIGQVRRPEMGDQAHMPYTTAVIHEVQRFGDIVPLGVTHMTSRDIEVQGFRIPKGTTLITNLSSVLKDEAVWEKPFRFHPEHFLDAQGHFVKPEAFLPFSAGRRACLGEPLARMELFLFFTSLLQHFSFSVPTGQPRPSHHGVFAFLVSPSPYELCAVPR

[6] = Drug uptake in human hepatocytes at 37 degree C for 15 mins by LC/MS/MS analysis; assay type: ADME, cell-based, Hepatocyte; conditions: 0.25 h
[7] = Clearance in Sinclair Lab dog at 1 mg/kg,iv and measured after 72 hrs by LC/MS/MS analysis; assay type: ADME, organism-based, Canis lupus familiaris; conditions: in vivo
[8] = Protein binding in rat plasma at 1 uM incubated for 6 hrs by LC-MS/MS based rapid equilibrium dialysis method; assay type: ADME, cell-free; conditions: read-out: PPB (converted)
Cytochrome P450 2C9 = Cytochrome P450 2C9 (Homo sapiens, UniProt P11712); assay: Inhibition of CYP2C9 in human liver microsomes incubated for 10 mins in presence of NADPH by LC/MS/MS analysis; assay type: ADME, Microsome
Chain of Cytochrome P450 2C9 (P11712 whole entry): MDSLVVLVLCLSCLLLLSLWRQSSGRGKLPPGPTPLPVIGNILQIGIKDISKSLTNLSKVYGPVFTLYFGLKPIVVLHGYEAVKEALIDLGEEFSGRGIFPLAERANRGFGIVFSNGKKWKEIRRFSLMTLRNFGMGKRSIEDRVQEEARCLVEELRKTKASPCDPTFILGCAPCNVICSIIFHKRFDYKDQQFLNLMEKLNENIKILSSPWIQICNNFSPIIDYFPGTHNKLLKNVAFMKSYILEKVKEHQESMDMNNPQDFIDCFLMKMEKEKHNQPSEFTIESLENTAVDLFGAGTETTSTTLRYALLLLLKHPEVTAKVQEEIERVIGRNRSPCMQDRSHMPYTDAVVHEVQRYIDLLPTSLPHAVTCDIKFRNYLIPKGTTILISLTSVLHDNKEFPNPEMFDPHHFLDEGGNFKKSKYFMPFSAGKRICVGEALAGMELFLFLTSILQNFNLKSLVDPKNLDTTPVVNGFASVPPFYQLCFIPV

PXR = molecular target: T1, PXR (Homo sapiens, UniProt O75469); assay: Activation of human PXR expressed in human DPX2 co-expressing luciferase reporter gene assessed as maximum efficacy incubated for 24 hrs by luciferase assay relative to control; assay type: cell-based; conditions: DPX2 cells expressing human PXR and luciferase reporter gene
T1 sequence (O75469 whole entry): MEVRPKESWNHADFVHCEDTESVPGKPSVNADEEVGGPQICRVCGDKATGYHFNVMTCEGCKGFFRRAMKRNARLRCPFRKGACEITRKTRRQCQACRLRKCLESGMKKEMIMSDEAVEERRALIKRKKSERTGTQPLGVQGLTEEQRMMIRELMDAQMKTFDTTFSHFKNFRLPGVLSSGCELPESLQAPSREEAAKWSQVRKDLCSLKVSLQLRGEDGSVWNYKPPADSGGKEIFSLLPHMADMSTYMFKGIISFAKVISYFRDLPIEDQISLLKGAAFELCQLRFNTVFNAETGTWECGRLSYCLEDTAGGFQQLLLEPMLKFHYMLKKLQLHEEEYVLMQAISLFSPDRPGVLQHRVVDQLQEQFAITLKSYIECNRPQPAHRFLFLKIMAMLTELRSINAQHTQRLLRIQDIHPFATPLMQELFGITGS

[9] = Clearance in Cynomolgus monkey at 1 mg/kg,iv and measured after 72 hrs by LC/MS/MS analysis; assay type: ADME, organism-based, Macaca fascicularis; conditions: in vivo
[10] = Half life in Sprague-Dawley rat at 3 mg/kg,po and measured after 72 hrs by LC/MS/MS analysis; assay type: ADME, organism-based; conditions: in vivo
[11] = Microsomal stability in human liver microsomes assessed as parent compound remaining at 1 uM and measured after 30 mins in presence of NADPH by LC/MS/MS analysis; assay type: ADME, Microsome; conditions: 0.5 h
[12] = Microsomal stability in rat liver microsomes assessed as parent compound remaining at 1 uM and measured after 30 mins in presence of NADPH by LC/MS/MS analysis; assay type: ADME, Microsome; conditions: 0.5 h
[13] = Volume of distribution at steady state in Sinclair Lab dog at 1 mg/kg,iv and measured after 72 hrs by LC/MS/MS analysis; assay type: ADME, organism-based, Canis lupus familiaris; conditions: in vivo, read-out: Vdss
[14] = Unbound AUC (0 to infinity) in Sprague-Dawley rat at 3 mg/kg,po and measured after 72 hrs by LC/MS/MS analysis; assay type: ADME, organism-based; conditions: in vivo
Hepatitis C virus [15] = assay: Antiviral activity against Hepatitis C virus subtype 1b infected in Huh-7 cells transfected with HCV subgenomic replicon for NS5B polymerase assessed as inhibition of viral replication measured upto 96 hrs in presence of 40% of human serum by luciferase reporter gene assay; assay type: functional, organism-based, Hepacivirus hominis; conditions: Huh-7, 96 h
Cytochrome P450 3A4 = Cytochrome P450 3A4 (Homo sapiens, UniProt P08684); assay: Inhibition of CYP3A4 in human liver microsomes incubated for 10 mins in presence of NADPH by LC/MS/MS analysis; assay type: ADME, Microsome
Chain of Cytochrome P450 3A4 (P08684 whole entry): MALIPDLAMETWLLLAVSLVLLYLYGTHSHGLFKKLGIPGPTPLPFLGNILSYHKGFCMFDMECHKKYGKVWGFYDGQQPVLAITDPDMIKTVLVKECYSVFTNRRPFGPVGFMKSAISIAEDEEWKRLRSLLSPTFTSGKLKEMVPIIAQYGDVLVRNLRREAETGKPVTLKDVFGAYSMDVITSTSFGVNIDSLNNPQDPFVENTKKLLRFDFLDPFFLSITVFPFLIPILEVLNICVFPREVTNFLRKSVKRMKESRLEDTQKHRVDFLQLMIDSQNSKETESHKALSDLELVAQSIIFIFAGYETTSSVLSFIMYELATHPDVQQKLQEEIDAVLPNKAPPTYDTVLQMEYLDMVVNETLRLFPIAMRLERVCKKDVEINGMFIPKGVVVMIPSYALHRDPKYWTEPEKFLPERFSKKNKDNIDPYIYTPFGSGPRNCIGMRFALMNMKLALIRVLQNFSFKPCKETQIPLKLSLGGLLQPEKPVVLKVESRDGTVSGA

[16] = Unbound clearance in Sprague-Dawley rat at 1 mg/kg,iv and measured after 72 hrs by LC/MS/MS analysis; assay type: ADME, organism-based; conditions: in vivo
[17] = AUC (0 to infinity) in Cynomolgus monkey at 1 mg/kg,iv and measured after 72 hrs by LC/MS/MS analysis; assay type: ADME, organism-based, Macaca fascicularis; set-up: dose 1 mg/kg, time 72 hrs, route iv; conditions: in vivo
[18] = Unbound AUC (0 to infinity) in Sprague-Dawley rat at 1 mg/kg,iv and measured after 72 hrs by LC/MS/MS analysis; assay type: ADME, organism-based; conditions: in vivo
Hepatitis C virus [19] = assay: Antiviral activity against Hepatitis C virus subtype 1b infected in Huh-7 cells transfected with HCV subgenomic replicon for NS5B polymerase assessed as inhibition of viral replication measured upto 96 hrs by luciferase reporter gene assay; assay type: functional, organism-based, Hepacivirus hominis
[20] = AUC (0 to infinity) in Sprague-Dawley rat at 1 mg/kg,iv and measured after 72 hrs by LC/MS/MS analysis; assay type: ADME, organism-based; set-up: time 72 hrs, dose 1 mg/kg, route iv; conditions: Sprague-Dawley, in vivo
[21] = Drug distribution in Sprague-Dawley rat plasma at 10 mg/kg,po and measured upto 24 hrs by LC/MS/MS analysis; assay type: ADME, organism-based; conditions: in vivo
[22] = Clearance in Sprague-Dawley rat at 1 mg/kg,iv and measured after 72 hrs by LC/MS/MS analysis; assay type: ADME, organism-based; conditions: in vivo
[23] = Unbound clearance in Sinclair Lab dog at 1 mg/kg,iv and measured after 72 hrs by LC/MS/MS analysis; assay type: ADME, organism-based, Canis lupus familiaris; conditions: in vivo
[24] = molecular target: T2, Nuclear receptor subfamily 1 group I member 2 (Homo sapiens, UniProt O75469); assay: Activation of human PXR expressed in human DPX2 co-expressing luciferase reporter gene incubated for 24 hrs by luciferase assay; assay type: cell-based
T2 sequence (O75469 whole entry): T1 sequence (O75469 whole entry)

[25] = Unbound AUC (0 to infinity) in Sinclair Lab dog at 1 mg/kg,iv and measured after 72 hrs by LC/MS/MS analysis; assay type: ADME, organism-based, Canis lupus familiaris; conditions: in vivo
[26] = Volume of distribution at steady state in Sprague-Dawley rat at 1 mg/kg,iv and measured after 72 hrs by LC/MS/MS analysis; assay type: ADME, organism-based; conditions: in vivo, read-out: Vdss
[27] = Volume of distribution at steady state in Cynomolgus monkey at 1 mg/kg,iv and measured after 72 hrs by LC/MS/MS analysis; assay type: ADME, organism-based, Macaca fascicularis; conditions: in vivo, read-out: Vdss
[28] = Cmax in Sprague-Dawley rat at 3 mg/kg,po and measured after 72 hrs by LC/MS/MS analysis; assay type: ADME, organism-based; set-up: time 72 hrs, dose 3 mg/kg, route po; conditions: in vivo
[29] = Drug uptake in human hepatocytes at 4 degree C for 15 mins by LC/MS/MS analysis; assay type: ADME, cell-based, Hepatocyte; conditions: 0.25 h
[30] = Drug distribution in Sprague-Dawley rat liver at 10 mg/kg,po and measured upto 24 hrs by LC/MS/MS analysis; assay type: ADME, organism-based; conditions: in vivo
[31] = Cytotoxicity against human Huh-7 cells transfected with HCV subgenomic replicon for NS5B polymerase assessed as reduction in cell viability; assay type: toxicity, cell-based
[32] = Half life in Sprague-Dawley rat at 1 mg/kg,iv and measured after 72 hrs by LC/MS/MS analysis; assay type: ADME, organism-based; conditions: in vivo
[33] = AUC (0 to infinity) in Sprague-Dawley rat at 3 mg/kg,po and measured after 72 hrs by LC/MS/MS analysis; assay type: ADME, organism-based; set-up: time 72 hrs, dose 3 mg/kg, route po; conditions: in vivo
[34] = Drug excretion in bile-duct cannulated Sprague-Dawley rat assessed as bile elimination at 15 mg/kg,po and measured after 72 hrs by LC/MS/MS analysis; assay type: ADME, organism-based; conditions: in vivo
[35] = AUC (0 to infinity) in Sinclair Lab dog at 1 mg/kg,iv and measured after 72 hrs by LC/MS/MS analysis; assay type: ADME, organism-based, Canis lupus familiaris; set-up: time 72 hrs, dose 1 mg/kg, route iv; conditions: in vivo

CN1CCCC[C@H](N(c2cc(C#CC(C)(C)C)sc2C(=O)O)C(=O)[C@H]2CC[C@H](C)CC2)C1=O
half-life [1]: 5.44 h | CL free [2]: 3350 mL/min/kg | fAUC [3]: 4.43 ng·h/mL | half-life [4]: 1.39 h | bioavailability [5]: 97% | IC50 (Cytochrome P450 2D6): > 30000 nM | Drug uptake [6]: Active | clearance [7]: 15 mL/min/kg | fraction unbound at 6 h, 1 µM [8]: 0.008 | IC50 (Cytochrome P450 2C9): > 30000 nM | Emax at 24 h (PXR): 10% | clearance [9]: 33.5 mL/min/kg | half-life [10]: 2.91 h | Stability [11]: Stable | Stability [12]: Stable | Vd [13]: 1.59 L/kg | fAUC [14]: 30.6 ng·h/mL | IC50 (Hepatitis C virus [15]): 23 nM | IC50 (Cytochrome P450 3A4): > 30000 nM | CL free [16]: 2010 mL/min/kg | AUC(0-inf) [17]: 443 ng·h/mL | fAUC [18]: 11.8 ng·h/mL | IC50 (Hepatitis C virus [19]; Huh-7, 96 h): 4 nM | IC90 (Hepatitis C virus [19]; Huh-7, time <= 96 hrs): 12 nM | AUC(0-inf) [20]: 1480 ng·h/mL | Drug uptake [21]: Active | clearance [22]: 16.1 mL/min/kg | CL free [23]: 2140 mL/min/kg | EC50 [24]: > 30000 nM | fAUC [25]: 10.1 ng·h/mL | Vd [26]: 1.95 L/kg | Vd [27]: 5.27 L/kg | Cmax [28]: 1040 ng/mL | Drug uptake [29]: Active | Drug uptake [30]: Active | CC50 [31]: > 20000 nM | half-life [32]: 2.12 h | AUC(0-inf) [33]: 3820 ng·h/mL | Drug excretion [34]: Active | AUC(0-inf) [35]: 1450 ng·h/mL
